Reference: ChEMBL document CHEMBL4507329, “Data for DCP probe BTZO-1” (2021)

Tests used:
[1] = target: Serine/threonine-protein kinase 17B (Homo sapiens) (UniProt O94768); details: Compound concentration 1000.0 nM
[2] = target: Serine/threonine-protein kinase 16 (Homo sapiens) (UniProt O75716); details: Compound concentration 1000.0 nM
[3] = target: Ribosomal protein S6 kinase alpha-4 (Homo sapiens) (UniProt O75676); details: Compound concentration 1000.0 nM
[4] = target: Alpha-2A adrenergic receptor (Homo sapiens) (UniProt P08913); details: Compound concentration 10.0 uM
[5] = target: Aurora kinase A (Homo sapiens) (UniProt O14965); details: Compound concentration 1000.0 nM
[6] = target: Myosin-IIIb (Homo sapiens) (UniProt Q8WXR4); details: Compound concentration 1000.0 nM
[7] = system: Receptor-type tyrosine-protein kinase FLT3 (Homo sapiens), P36888 [D835H]; details: Compound concentration 1000.0 nM
[8] = target: Phosphatidylinositol 4-phosphate 5-kinase type-1 gamma (Homo sapiens) (UniProt O60331); details: Compound concentration 1000.0 nM
[9] = target: Sodium-dependent noradrenaline transporter (Homo sapiens) (UniProt P23975); details: Compound concentration 10.0 uM
[10] = target: Proto-oncogene tyrosine-protein kinase receptor Ret (Homo sapiens) (UniProt P07949); details: Compound concentration 1000.0 nM
[11] = target: Serine/threonine-protein kinase 32B (Homo sapiens) (UniProt Q9NY57); details: Compound concentration 1000.0 nM
[12] = system: Mast/stem cell growth factor receptor Kit (Homo sapiens), P10721 [L576P]; details: Compound concentration 1000.0 nM
[13] = target: Leucine-rich repeat serine/threonine-protein kinase 2 (Homo sapiens) (UniProt Q5S007); details: Compound concentration 1000.0 nM
[14] = target: Vascular endothelial growth factor receptor 3 (Homo sapiens) (UniProt P35916); details: Compound concentration 1000.0 nM
[15] = target: Inhibitor of nuclear factor kappa-B kinase subunit alpha (Homo sapiens) (UniProt O15111); details: Compound concentration 1000.0 nM
[16] = target: Serine/threonine-protein kinase Nek9 (Homo sapiens) (UniProt Q8TD19); details: Compound concentration 1000.0 nM
[17] = target: Ribosomal protein S6 kinase alpha-5 (Homo sapiens) (UniProt O75582); details: Compound concentration 1000.0 nM
[18] = target: Serine/threonine-protein kinase SIK3 (Homo sapiens) (UniProt Q9Y2K2); details: Compound concentration 1000.0 nM
[19] = target: Serine/threonine-protein kinase ICK (Homo sapiens) (UniProt Q9UPZ9); details: Compound concentration 1000.0 nM
[20] = target: Tyrosine-protein kinase ABL1 (Homo sapiens) (UniProt P00519); details: Compound concentration 1000.0 nM
[21] = system: Tyrosine-protein kinase ABL1 (Homo sapiens), P00519 [H396P]; details: Compound concentration 1000.0 nM
[22] = system: Receptor-type tyrosine-protein kinase FLT3 (Homo sapiens), P36888 [N841I]; details: Compound concentration 1000.0 nM
[23] = target: Serine/threonine-protein kinase Nek2 (Homo sapiens) (UniProt P51955); details: Compound concentration 1000.0 nM
[24] = target: Myosin light chain kinase, smooth muscle (Homo sapiens) (UniProt Q15746); details: Compound concentration 1000.0 nM
[25] = system: Leucine-rich repeat serine/threonine-protein kinase 2 (Homo sapiens), Q5S007 [G2019S]; details: Compound concentration 1000.0 nM
[26] = target: Macrophage colony-stimulating factor 1 receptor (Homo sapiens) (UniProt P07333); details: Compound concentration 1000.0 nM
[27] = target: High affinity nerve growth factor receptor (Homo sapiens) (UniProt P04629); details: Compound concentration 1000.0 nM
[28] = target: Phosphatidylinositol 5-phosphate 4-kinase type-2 gamma (Homo sapiens) (UniProt Q8TBX8); details: Compound concentration 1000.0 nM
[29] = target: Mitogen-activated protein kinase kinase kinase 3 (Homo sapiens) (UniProt Q99759); details: Compound concentration 1000.0 nM
[30] = target: Ribosomal protein S6 kinase alpha-3 (Homo sapiens) (UniProt P51812); details: Compound concentration 1000.0 nM
[31] = target: 5-hydroxytryptamine receptor 2C (Homo sapiens) (UniProt P28335); details: Compound concentration 10.0 uM
[32] = target: Serine/threonine-protein kinase ULK1 (Homo sapiens) (UniProt O75385); details: Compound concentration 1000.0 nM
[33] = target: Beta-adrenergic receptor kinase 1 (Homo sapiens) (UniProt P25098); details: Compound concentration 1000.0 nM
[34] = target: Serine/threonine-protein kinase Chk1 (Homo sapiens) (UniProt O14757); details: Compound concentration 1000.0 nM
[35] = target: Interleukin-1 receptor-associated kinase 4 (Homo sapiens) (UniProt Q9NWZ3); details: Compound concentration 1000.0 nM
[36] = target: Dual specificity protein kinase CLK1 (Homo sapiens) (UniProt P49759); details: Compound concentration 1000.0 nM
[37] = target: Mitogen-activated protein kinase kinase kinase 1 (Homo sapiens) (UniProt Q13233); details: Compound concentration 1000.0 nM
[38] = target: Ribosomal protein S6 kinase alpha-6 (Homo sapiens) (UniProt Q9UK32); details: Compound concentration 1000.0 nM
[39] = target: G protein-coupled receptor kinase 4 (Homo sapiens) (UniProt P32298); details: Compound concentration 1000.0 nM
[40] = target: Tyrosine-protein kinase ABL2 (Homo sapiens) (UniProt P42684); details: Compound concentration 1000.0 nM
[41] = target: Myosin light chain kinase family member 4 (Homo sapiens) (UniProt Q86YV6); details: Compound concentration 1000.0 nM
[42] = target: Dual specificity testis-specific protein kinase 1 (Homo sapiens) (UniProt Q15569); details: Compound concentration 1000.0 nM
[43] = target: Mitogen-activated protein kinase 15 (Homo sapiens) (UniProt Q8TD08); details: Compound concentration 1000.0 nM
[44] = target: Calcium/calmodulin-dependent protein kinase type 1G (Homo sapiens) (UniProt Q96NX5); details: Compound concentration 1000.0 nM
[45] = system: Receptor-type tyrosine-protein kinase FLT3 (Homo sapiens), P36888 [D835Y]; details: Compound concentration 1000.0 nM

Leucine-rich repeat serine/threonine-protein kinase 2 (Homo sapiens), Q5S007 [G2019S], sequence (Q5S007 whole entry G2019S): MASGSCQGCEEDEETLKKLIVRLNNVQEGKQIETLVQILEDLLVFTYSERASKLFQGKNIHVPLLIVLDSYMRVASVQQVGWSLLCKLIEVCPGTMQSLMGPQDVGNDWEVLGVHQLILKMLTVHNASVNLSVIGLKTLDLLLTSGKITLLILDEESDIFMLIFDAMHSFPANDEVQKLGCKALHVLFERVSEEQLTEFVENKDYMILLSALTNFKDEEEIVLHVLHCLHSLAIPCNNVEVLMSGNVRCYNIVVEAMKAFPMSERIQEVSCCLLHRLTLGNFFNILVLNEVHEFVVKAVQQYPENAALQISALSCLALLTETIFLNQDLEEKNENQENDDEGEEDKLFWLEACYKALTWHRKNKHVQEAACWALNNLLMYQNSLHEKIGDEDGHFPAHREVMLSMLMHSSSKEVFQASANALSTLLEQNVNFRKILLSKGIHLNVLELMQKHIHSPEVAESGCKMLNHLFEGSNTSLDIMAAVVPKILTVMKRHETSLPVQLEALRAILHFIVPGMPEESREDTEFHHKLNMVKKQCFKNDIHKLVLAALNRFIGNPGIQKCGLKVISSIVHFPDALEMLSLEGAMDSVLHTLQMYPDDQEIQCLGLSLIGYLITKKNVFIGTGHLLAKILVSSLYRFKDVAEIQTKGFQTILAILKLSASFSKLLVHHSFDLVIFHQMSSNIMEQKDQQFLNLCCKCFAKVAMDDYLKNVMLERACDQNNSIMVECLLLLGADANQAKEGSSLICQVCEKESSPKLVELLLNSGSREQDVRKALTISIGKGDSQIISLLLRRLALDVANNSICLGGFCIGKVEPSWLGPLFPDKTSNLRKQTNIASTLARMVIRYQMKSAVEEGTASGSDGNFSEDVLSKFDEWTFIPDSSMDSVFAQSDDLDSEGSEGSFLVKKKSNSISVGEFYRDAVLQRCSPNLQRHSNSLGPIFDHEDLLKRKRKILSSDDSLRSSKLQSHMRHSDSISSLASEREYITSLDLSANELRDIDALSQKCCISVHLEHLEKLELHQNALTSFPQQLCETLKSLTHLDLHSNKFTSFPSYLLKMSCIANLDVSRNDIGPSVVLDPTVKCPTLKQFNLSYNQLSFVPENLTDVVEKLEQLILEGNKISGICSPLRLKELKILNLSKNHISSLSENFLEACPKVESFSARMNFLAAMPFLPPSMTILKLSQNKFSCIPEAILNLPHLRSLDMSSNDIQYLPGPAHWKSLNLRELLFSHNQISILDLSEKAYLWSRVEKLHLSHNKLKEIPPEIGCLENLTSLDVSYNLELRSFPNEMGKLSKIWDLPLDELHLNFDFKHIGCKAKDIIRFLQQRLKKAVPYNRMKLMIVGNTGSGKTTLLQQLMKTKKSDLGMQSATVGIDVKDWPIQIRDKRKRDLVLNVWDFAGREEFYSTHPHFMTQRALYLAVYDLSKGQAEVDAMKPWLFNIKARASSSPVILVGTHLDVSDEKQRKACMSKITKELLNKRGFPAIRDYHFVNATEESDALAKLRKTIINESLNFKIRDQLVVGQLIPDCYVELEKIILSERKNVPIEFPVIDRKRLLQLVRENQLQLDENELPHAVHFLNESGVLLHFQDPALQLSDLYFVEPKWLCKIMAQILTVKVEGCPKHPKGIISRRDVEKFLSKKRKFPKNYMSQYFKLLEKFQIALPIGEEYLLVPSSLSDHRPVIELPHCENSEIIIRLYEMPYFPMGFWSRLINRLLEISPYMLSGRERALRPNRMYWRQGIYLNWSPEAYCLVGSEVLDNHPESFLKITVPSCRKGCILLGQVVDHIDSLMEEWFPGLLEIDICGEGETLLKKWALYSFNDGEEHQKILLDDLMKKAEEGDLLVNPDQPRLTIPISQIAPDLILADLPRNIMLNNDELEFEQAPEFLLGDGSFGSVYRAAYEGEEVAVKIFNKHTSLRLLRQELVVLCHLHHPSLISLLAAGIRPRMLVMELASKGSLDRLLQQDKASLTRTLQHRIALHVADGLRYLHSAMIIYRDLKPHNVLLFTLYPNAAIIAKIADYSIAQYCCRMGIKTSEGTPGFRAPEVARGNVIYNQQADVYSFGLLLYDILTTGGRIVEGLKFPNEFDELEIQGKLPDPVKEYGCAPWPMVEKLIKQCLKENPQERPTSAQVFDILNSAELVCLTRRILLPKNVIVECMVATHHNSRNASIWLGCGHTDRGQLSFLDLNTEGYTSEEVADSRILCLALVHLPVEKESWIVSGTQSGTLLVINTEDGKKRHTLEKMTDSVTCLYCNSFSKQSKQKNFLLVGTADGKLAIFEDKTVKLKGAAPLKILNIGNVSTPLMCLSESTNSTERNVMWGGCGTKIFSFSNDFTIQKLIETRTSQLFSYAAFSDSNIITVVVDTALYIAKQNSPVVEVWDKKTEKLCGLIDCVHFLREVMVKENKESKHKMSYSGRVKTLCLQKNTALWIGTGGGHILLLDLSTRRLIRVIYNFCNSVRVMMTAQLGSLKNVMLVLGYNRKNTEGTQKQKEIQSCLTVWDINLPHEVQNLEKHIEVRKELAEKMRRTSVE
Interleukin-1 receptor-associated kinase 4 (Homo sapiens), sequence (Q9NWZ3 whole entry): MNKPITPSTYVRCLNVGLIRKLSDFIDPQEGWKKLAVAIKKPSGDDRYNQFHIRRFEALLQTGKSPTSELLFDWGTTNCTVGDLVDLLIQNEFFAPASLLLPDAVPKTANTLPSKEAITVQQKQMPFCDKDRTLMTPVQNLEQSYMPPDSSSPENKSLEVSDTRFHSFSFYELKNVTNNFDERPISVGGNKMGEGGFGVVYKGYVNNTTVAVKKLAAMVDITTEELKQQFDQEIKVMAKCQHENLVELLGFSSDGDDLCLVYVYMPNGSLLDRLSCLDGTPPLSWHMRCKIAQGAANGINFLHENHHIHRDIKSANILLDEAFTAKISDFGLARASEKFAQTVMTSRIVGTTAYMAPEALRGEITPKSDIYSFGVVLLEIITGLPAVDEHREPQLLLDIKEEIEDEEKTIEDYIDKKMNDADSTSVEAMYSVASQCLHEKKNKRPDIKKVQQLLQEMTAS
Ribosomal protein S6 kinase alpha-6 (Homo sapiens), sequence (Q9UK32 whole entry): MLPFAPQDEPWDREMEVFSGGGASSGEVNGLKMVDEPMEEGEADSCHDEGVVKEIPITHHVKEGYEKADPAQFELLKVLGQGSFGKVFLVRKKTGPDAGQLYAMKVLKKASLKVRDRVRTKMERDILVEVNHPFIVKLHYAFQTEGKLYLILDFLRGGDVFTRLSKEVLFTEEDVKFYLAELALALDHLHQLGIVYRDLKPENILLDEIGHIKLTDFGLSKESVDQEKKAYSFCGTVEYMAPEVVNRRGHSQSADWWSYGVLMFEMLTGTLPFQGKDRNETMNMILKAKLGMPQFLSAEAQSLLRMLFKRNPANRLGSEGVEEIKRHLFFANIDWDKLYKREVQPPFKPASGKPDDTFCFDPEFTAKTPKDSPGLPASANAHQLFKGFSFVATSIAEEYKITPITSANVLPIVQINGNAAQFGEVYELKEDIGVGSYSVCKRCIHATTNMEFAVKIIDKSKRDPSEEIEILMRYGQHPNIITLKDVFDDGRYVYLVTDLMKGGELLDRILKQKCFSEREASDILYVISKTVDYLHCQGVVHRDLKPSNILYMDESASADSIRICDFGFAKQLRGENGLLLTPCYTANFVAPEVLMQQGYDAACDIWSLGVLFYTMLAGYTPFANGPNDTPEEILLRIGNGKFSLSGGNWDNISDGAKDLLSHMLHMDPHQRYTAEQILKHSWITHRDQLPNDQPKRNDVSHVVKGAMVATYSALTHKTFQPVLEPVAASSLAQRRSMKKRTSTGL
Inhibitor of nuclear factor kappa-B kinase subunit alpha (Homo sapiens), sequence (O15111 whole entry): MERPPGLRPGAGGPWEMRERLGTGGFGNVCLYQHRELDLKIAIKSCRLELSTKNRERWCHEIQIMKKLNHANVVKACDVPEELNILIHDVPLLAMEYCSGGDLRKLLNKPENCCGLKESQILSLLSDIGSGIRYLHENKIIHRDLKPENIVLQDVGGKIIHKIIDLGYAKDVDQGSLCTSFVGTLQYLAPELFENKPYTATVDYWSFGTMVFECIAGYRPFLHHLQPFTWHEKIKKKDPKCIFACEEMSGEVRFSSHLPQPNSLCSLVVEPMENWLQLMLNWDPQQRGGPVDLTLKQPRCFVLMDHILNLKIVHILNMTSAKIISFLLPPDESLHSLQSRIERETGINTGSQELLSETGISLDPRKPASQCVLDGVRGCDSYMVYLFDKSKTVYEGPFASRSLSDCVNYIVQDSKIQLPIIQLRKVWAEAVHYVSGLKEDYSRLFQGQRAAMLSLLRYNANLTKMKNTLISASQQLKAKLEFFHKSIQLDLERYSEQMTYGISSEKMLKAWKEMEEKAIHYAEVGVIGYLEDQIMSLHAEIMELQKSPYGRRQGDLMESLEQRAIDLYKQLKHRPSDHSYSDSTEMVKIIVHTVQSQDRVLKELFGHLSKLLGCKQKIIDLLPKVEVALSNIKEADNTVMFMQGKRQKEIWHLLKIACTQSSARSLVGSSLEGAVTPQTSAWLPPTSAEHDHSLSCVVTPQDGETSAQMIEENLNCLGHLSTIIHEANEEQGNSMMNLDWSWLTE
Mitogen-activated protein kinase 15 (Homo sapiens), sequence (Q8TD08 whole entry): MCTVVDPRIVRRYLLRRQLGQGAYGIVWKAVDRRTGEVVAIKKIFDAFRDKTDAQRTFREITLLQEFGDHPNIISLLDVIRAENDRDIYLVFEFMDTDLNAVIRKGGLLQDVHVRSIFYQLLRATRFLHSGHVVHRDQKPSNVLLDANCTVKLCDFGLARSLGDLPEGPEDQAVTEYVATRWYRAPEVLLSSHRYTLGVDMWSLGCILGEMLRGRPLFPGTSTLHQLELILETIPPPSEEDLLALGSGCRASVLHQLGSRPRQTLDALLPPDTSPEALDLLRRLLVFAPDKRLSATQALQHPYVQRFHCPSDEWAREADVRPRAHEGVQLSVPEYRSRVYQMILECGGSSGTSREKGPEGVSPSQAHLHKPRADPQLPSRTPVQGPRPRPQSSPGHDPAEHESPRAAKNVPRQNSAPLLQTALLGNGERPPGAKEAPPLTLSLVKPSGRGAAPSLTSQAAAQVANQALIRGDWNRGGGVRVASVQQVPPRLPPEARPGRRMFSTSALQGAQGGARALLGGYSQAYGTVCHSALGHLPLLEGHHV
Leucine-rich repeat serine/threonine-protein kinase 2 (Homo sapiens), sequence (Q5S007 whole entry): as the sequence (Q5S007 whole entry G2019S) above, with S2019G counted along it

O=c1nc(-c2ccccn2)sc2ccccc12 [BTZO-1]
inactive: residual activity [1] 80% | residual activity [2] 83% | residual activity [3] 80% | inhibition [4] 0.132% | residual activity [5] 87% | residual activity [6] 79% | residual activity [7] 74% | residual activity [8] 84% | inhibition [9] -0.363% | residual activity [10] 89% | residual activity [11] 100% | residual activity [12] 86% | residual activity [13] 97% | residual activity [14] 84% | residual activity [15] 100% | residual activity [16] 96% | residual activity [17] 88% | residual activity [18] 85% | residual activity [19] 83% | residual activity [20] 93% | residual activity [21] 100% | residual activity [22] 74% | residual activity [23] 84% | residual activity [24] 67% | residual activity [25] 92% | residual activity [26] 85% | residual activity [27] 100% | residual activity [28] 98% | residual activity [29] 77% | residual activity [30] 71% | inhibition [31] 12.2% | residual activity [32] 100% | residual activity [33] 65% | residual activity [34] 85% | residual activity [35] 100% | residual activity [36] 99% | residual activity [37] 65% | residual activity [38] 95% | residual activity [39] 100% | residual activity [40] 87% | residual activity [41] 87% | residual activity [42] 84% | residual activity [43] 100% | residual activity [44] 100% | residual activity [45] 100%

O=C1NC(c2ccccn2)Sc2ccccc21 (stereo not given) [BTZO-4]
inactive: residual activity [1] 73% | residual activity [2] 83% | residual activity [3] 74% | inhibition [4] 12.7% | residual activity [5] 93% | residual activity [6] 96% | residual activity [7] 65% | residual activity [8] 77% | inhibition [9] 28.7% | residual activity [10] 88% | residual activity [11] 100% | residual activity [12] 89% | residual activity [13] 93% | residual activity [14] 70% | residual activity [15] 100% | residual activity [16] 75% | residual activity [17] 87% | residual activity [18] 70% | residual activity [19] 86% | residual activity [20] 69% | residual activity [21] 80% | residual activity [22] 60% | residual activity [23] 100% | residual activity [24] 77% | residual activity [25] 81% | residual activity [26] 85% | residual activity [27] 100% | residual activity [28] 100% | residual activity [29] 93% | residual activity [30] 72% | inhibition [31] 3.98% | residual activity [32] 100% | residual activity [33] 58% | residual activity [34] 88% | residual activity [35] 100% | residual activity [36] 98% | residual activity [37] 55% | residual activity [38] 96% | residual activity [39] 100% | residual activity [40] 85% | residual activity [41] 90% | residual activity [42] 100% | residual activity [43] 100% | residual activity [44] 100% | residual activity [45] 86%
